The values below come from patent publication US20180319753A1, “MICROBIOCIDAL OXADIAZOLE DERIVATIVES” (SYNGENTA PARTICIPATIONS AG, priority 2015, published 2018).

In data set [1] the test system is Phakopsora pachyrhizi. Kind of data set: Phakopsora pachyrhizi / soybean / leaf disc preventative (Asian soybean rust). The format is in vivo. Conditions: foliar, 200 ppm in the applied formulation, soybean leaf disks, inoculated one day after application, assessed 12 to 14 days after application, read-out: disease control compared to untreated control leaf disks. As for the experimental part: Leaf disks or leaf segments of various plant species are cut from plants grown in a greenhouse. The cut leaf disks or segments are placed in multiwell plates (24-well format) onto water agar. The leaf disks are sprayed with a test solution before (preventative) or after (curative) inoculation. Compounds to be tested are prepared as DMSO solutions (max. 10 mg/ml) which are diluted to the appropriate concentration with 0.025% Tween20 just before spraying. The inoculated leaf disks or segments are incubated under defined conditions (temperature, relative humidity, light, etc.) according to the respective test system. A single evaluation of disease level is carried out 3 to 14 days after inoculation, depending on the pathosystem. Percent disease control relative to the untreated check leaf disks or segments is then calculated.
Soybean leaf disks are placed on water agar in multiwell plates (24-well format) and sprayed with the formulated test compound diluted in water. One day after application leaf discs are inoculated by spraying a spore suspension on the lower leaf surface. After an incubation period in a climate cabinet of 24-36 hours in darkness at 20° C. and 75% rh leaf disc are kept at 20° C. with 12 h light/day and 75% rh. The activity of a compound is assessed as percent disease control compared to untreated when an appropriate level of disease damage appears in untreated check leaf disks (12 to 14 days after application).
The following compounds at 200 ppm in the applied formulation give at least 80% disease control in this test when compared to untreated control leaf disks under the same conditions, which show extensive disease development.

In data set [2] the test system is Glomerella lagenarium (Colletotrichum lagenarium). As to the kind of experiment: Glomerella lagenarium (Colletotrichum lagenarium) liquid culture / cucumber / preventative (anthracnose). The format is cell-based. The settings on record: Colletotrichum orbiculare; 20 ppm in the applied formulation; liquid culture in PDB, 24° C.; 3 to 4 days after application; read-out: disease control compared to untreated control (inhibition of growth measured photometrically). As for the experimental part:
Mycelia fragments or conidia suspensions of a fungus prepared either freshly from liquid cultures of the fungus or from cryogenic storage, are directly mixed into nutrient broth. DMSO solutions of the test compound (max. 10 mg/ml) are diluted with 0.025% Tween20 by a factor of 50 and 10 μl of this solution is pipetted into a microtiter plate (96-well format). The nutrient broth containing the fungal spores/mycelia fragments is then added to give an end concentration of the tested compound. The test plates are incubated in the dark at 24° C. and 96% relative humidity. The inhibition of fungal growth is determined photometrically after 2 to 7 days, depending on the pathosystem, and percent antifungal activity relative to the untreated check is calculated.
Conidia of the fungus from cryogenic storage are directly mixed into nutrient broth (PDB—potato dextrose broth). After placing a (DMSO) solution of test compound into a microtiter plate (96-well format), the nutrient broth containing the fungal spores is added. The test plates are incubated at 24° C. and the inhibition of growth is measured photometrically 3 to 4 days after application.
The following compounds at 20 ppm in the applied formulation give at least 80% disease control in this test when compared to untreated control under the same conditions, which show extensive disease development.

Each structure is given as a SMILES string.

In turn, `Fc1ccc(Sc2ccc(-c3noc(C(F)(F)F)n3)cc2)c(F)c1` [Compound 1.10, 3-[4-(2,4-difluorophenyl)sulfanylphenyl]-5-(trifluoromethyl)-1,2,4-oxadiazole] gave a melting point of 72 to 80 °C. Further, in data set [1], the pest or weed control at 200 ppm is ≥ 80%. Besides, the inhibition at 20 ppm in data set [2] was ≥ 80%.
As for `Fc1cc(-c2noc(C(F)(F)F)n2)ccc1CSc1ccccc1` [Compound 1.24, 3-[3-fluoro-4-(phenylsulfanylmethyl)phenyl]-5-(trifluoromethyl)-1,2,4-oxadiazole], the melting point was 50 to 55 °C. Moreover, the pest or weed control at 200 ppm in data set [1] is ≥ 80%. For the same compound, in data set [2], the inhibition at 20 ppm was ≥ 80%.
Consider `Fc1cc(CSc2ccccc2)ccc1-c1noc(C(F)(F)F)n1` [Compound 1.25, 3-[2-fluoro-4-(phenylsulfanylmethyl)phenyl]-5-(trifluoromethyl)-1,2,4-oxadiazole], for which the melting point lay in the range of 48 to 54 °C. In addition, the pest or weed control at 200 ppm in data set [1] is ≥ 80%. Moreover, the inhibition at 20 ppm in data set [2] was ≥ 80%.
With `[O-][S+](Cc1c(F)cccc1F)c1ccc(-c2noc(C(F)(F)F)n2)cc1` (centres unmarked) [Compound 2.9, 3-[4-[(2,6-difluorophenyl)methyl-sulfinyl]phenyl]-5-(trifluoromethyl)-1,2,4-oxadiazole], the melting point lay in the range of 126 to 130 °C. Besides, the pest or weed control at 200 ppm in data set [1] is ≥ 80%. Further, the inhibition at 20 ppm in data set [2] was ≥ 80%.
Regarding `[O-][S+](Cc1ccc(-c2noc(C(F)(F)F)n2)cc1)c1ccccc1F` (centres unmarked) [Compound 2.17, 3-[4-[(2-fluorophenyl)sulfinylmethyl]phenyl]-5-(trifluoromethyl)-1,2,4-oxadiazole], the melting point is 108 to 118 °C. Moreover, the pest or weed control at 200 ppm in data set [1] is ≥ 80%. Further, the inhibition at 20 ppm in data set [2] is ≥ 80%.
`[O-][S+](Cc1ccc(-c2noc(C(F)(F)F)n2)cc1F)c1ccccc1` (centres unmarked) [Compound 2.29, 3-[4-(benzenesulfinylmethyl)-3-fluoro-phenyl]-5-(trifluoromethyl)-1,2,4-oxadiazole]: the melting point was 116 to 120 °C. Further, the pest or weed control at 200 ppm in data set [1] was ≥ 80%. Also, the inhibition at 20 ppm in data set [2] is ≥ 80%.
As for `O=S(=O)(c1ccc(-c2noc(C(F)(F)F)n2)cc1)C1CCCCC1` [Compound 3.3, 3-(4-cyclohexylsulfonylphenyl)-5-(trifluoromethyl)-1,2,4-oxadiazole], the melting point is 110 to 116 °C. In data set [1], the pest or weed control at 200 ppm was ≥ 80%. The inhibition at 20 ppm in data set [2] was ≥ 80%.
In the case of `O=S(=O)(c1ccc(-c2noc(C(F)(F)F)n2)cc1)c1ccccc1F` [Compound 3.12, 3-[4-(2-fluorophenyl)sulfonylphenyl]-5-(trifluoromethyl)-1,2,4-oxadiazole], the melting point was in the range of 140 to 147 °C. Besides, the pest or weed control at 200 ppm in data set [1] was ≥ 80%. Moreover, the inhibition at 20 ppm in data set [2] was ≥ 80%.
As to `O=S(=O)(c1ccc(-c2noc(C(F)(F)F)n2)cc1)c1ccccc1Cl` [Compound 3.20, 3-[4-(2-chlorophenyl)sulfonylphenyl]-5-(trifluoromethyl)-1,2,4-oxadiazole], the pest or weed control at 200 ppm in data set [1] is ≥ 80%. Also, in data set [2], the inhibition at 20 ppm was ≥ 80%.
For `O=S(=O)(Cc1ccc(-c2noc(C(F)(F)F)n2)cn1)c1ccccc1` [Compound 3.21, 3-[6-(benzenesulfonylmethyl)-3-pyridyl]-5-(trifluoromethyl)-1,2,4-oxadiazole], the melting point is 160 to 166 °C. For the same compound, the pest or weed control at 200 ppm in data set [1] is ≥ 80%. Moreover, the inhibition at 20 ppm in data set [2] was ≥ 80%.
